The subject of this assay is C. formosanus. Nature of the assay: Preliminary laboratory dose-range test of colored bait matrix. It counts as in vivo, Coptotermes formosanus. The procedure:
(3) Incorporation of Nutrients. The dry colored alpha cellulose was then mixed with the nutritive liquid (described in U.S. Pat. No. 6,585,991 which is incorporated by reference in its entirety). The nutritive liquid was prepared by weighing 1.25 g lecithin (USB #18240), 0.450 g ergosterol (Sigma #E-6510), 3.75 g ethyl alcohol (Quantum MT #194A31), and 650 g drinking water (Barbe's dairy, West Wego, La.) into a 1 L glass bottle and mixing well using a glass bar. The opening of the bottle was covered with a foam stopper, the bottle cap was loosely placed on top of the stopper, and the stopper covered with foil. After autoclaving for 20 min at 120° C., the bottle was closed tightly and allowed to cool down. Under a laminar flow hood, yeast hydrolysate (ICN Biomed. #103304) was added to the lecithin-containing mixture using a sterile spatula and the mixture was shaken until the yeast hydrolysate was incorporated. The bottle was tightly closed. Using a sterile spatula, 667 ml lecithin-yeast hydrolysate-containing mixture was added to 333 g colored cellulose (at each of the calco oil blue V concentrations) and mixed well. The beaker was covered with foil and plastic to avoid contamination and loss of water. This mixture was stored at 5° C. up to 8 months or at room temperature for at least a month. The mixture was compacted and divided into pieces of about 25-50 g each at colorant concentrations of 50, 100, 225, 250, 500, and 750 ppm respectively. Chitin synthesis inhibitors such as Diflubenzuron (Ensystex) at a given concentration of 50, 100, 175, 200, and 250 ppm were individually weighed, dissolved in minimal amount of acetone (J. T. Baker #9010-03) in a 50 ml plastic tube, and added to the sterile liquid solution.
A concentration of 225 ppm Calco oil blue was effective as bait active ingredient taking a mean time to kill C. formosanus of 2.0 months under laboratory conditions.

For the compound `CCCCC(CC)CNc1ccc(NCC(CC)CCCC)c2c1C(=O)c1ccccc1C2=O` (stereo not drawn) [Calco oil blue V, 9,10-anthracenedione, 1,4-bis[(2-ethylhexyl)amino]], the “mean time to kill C. formosanus” value (225 ppm Calco oil blue, laboratory conditions) is listed as 2.0 months. Further, the “repellence to the termites” value is reported as “without any signs of repellence” (225 ppm blue colorant in combination with a chitin synthesis inhibitor (50-175 ppm)) and “Some repellence was observed” (colorant doses higher than 500 ppm). Further, the “time to induce FS termite mortality” value (225 ppm blue colorant in combination with a chitin synthesis inhibitor (50-175 ppm), preliminary results) was not above 2 months. Also, the Bait consumption result (concentrations greater than 500 and up to 1000 ppm) is on record as “bait consumption was reduced”. Further, for the setting “concentrations greater than 500 and up to 1000 ppm, compared with 225 ppm”, the mean killing times entry is on record as “not significantly different”.

Source of the values: patent US7628979B1, “Use of calco oil blue V in bait formulations for marking and controlling subterranean termites” (The United States of America as represented by the …, priority 2005, dated 2009).
